From paper PMC8050276, “Estradiol analogs attenuate autophagy, cell migration and invasion by direct and selective inhibition of TRPML1, independent of estrogen receptors” (Scientific Reports, 2021)
“And” between values parts separate entries of the source, which are not always exact repeats. Equal values may be shown once. “Also recorded” adds a separate entry of the source. Read-outs that look alike come from different tables or passages of the source.

Tests used:
[1] = target: hTRPML1∆NC-YFP (Homo sapiens, UniProt Q9GZU1); assay type: cell-based
Experimental: (§1) To identify inhibitors of TRPML1 and TRPML3, the Spectrum Collection compound library (MS Discoveries; 2000 compounds) and additional 430 bioactive compounds were screened. To this end, fluorometric Ca^2+ influx assays were performed by using the calcium dye Fluo-4/AM (Invitrogen, Thermo Fisher Scientific, Waltham, MA, USA) and a custom-made fluorescence imaging plate reader built into a robotic liquid handling station (Freedom Evo 150, Tecan, Männedorf, Switzerland). […] Screening compounds dissolved in DMSO (10 mM) were prediluted in 150 mM NaCl, 20 mM HEPES, pH 7.4, to a concentration of 200 µM. For primary screens, HEK293 stably expressing plasma membrane-targeted TRPML1 or TRPML3 were trypsinized and resuspended in cell culture medium supplemented with 4 µM Fluo-4/AM. After incubation at 37 °C for 30 min, the cell suspension was briefly centrifuged resuspended in HBS, and dispensed into black pigmented, clear-bottom 384-well microwell plates (Greiner μClear, Frickenhausen, Germany). Plates were placed into the FLIPR and fluorescence signals (excitation 470 nm, emission 515 nm) were recorded with a Zyla 5.5 camera (Andor, Belfast, UK) and the μManager software like previously described. In a first video, compound libraries were successively added to the cells with the Tecan 96-tip multichannel arm to a final concentration of 20 µM to map unspecific effects like autofluorescence or toxicity. In a second step the agonist ML-SA1 was pipetted in each well and fluorescence signals were recorded for 10 min. Analyses were done by calculating fluorescence intensities for each well and background areas with ImageJ (National Institutes of Health, Bethesda, MD, USA). Finally, the background was subtracted and the fluorescence intensities were normalized to initial intensities (F/F0). Concentration response curves were generated by the same procedure but compounds were manually prediluted in 96-well plates containing HBS, now supplemented with 0.1% bovine serum albumin. Here data was fitted to a four-parameter Hill equation to obtain Imin, Imax, IC50), and the Hill coefficient n.

[2] = system: hTRPML1∆NC-YFP; assay type: cell-based, human; conditions: for TRPML isoform selectivity profile: TRPML1, 2, 3 and TPC2, Fluo-4; for TRPML1:TRPML2 fold selectivity / TRPML1:TRPML3 fold selectivity: ratio of Fluo-4 IC50 values
Experimental: as §1

[3] = target: T1, hTRPML2-YFP (Homo sapiens, UniProt Q8IZK6); assay: Fluo-4 Ca2+ influx assay, HEK293 stably expressing hTRPML2-YFP, activated with ML-SA1; assay type: cell-based
T1 construct: expressed in transfected cells
T1 sequence (Q8IZK6 1-566): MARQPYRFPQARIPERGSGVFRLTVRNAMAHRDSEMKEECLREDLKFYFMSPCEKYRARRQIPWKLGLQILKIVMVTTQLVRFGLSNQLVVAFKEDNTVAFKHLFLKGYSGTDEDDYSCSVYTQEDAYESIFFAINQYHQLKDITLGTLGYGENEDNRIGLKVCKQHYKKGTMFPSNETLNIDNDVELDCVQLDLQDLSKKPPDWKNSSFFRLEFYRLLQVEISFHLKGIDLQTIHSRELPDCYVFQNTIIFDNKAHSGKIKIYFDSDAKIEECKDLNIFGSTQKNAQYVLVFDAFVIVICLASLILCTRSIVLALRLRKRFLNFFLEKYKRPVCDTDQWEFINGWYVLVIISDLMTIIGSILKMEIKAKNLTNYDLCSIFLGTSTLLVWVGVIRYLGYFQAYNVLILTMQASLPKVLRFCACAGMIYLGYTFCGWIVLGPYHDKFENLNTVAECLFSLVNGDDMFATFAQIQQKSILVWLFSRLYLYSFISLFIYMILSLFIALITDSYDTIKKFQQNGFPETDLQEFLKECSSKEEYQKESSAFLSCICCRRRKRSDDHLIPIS

[4] = target: T2, human ERα (Homo sapiens, UniProt P03372); assay: Yeast estrogen receptor assay (YES-assay), Saccharomyces cerevisiae transfected with human ERα, lacZ reporter; assay type: cell-based; conditions: 0.01-100 µM, 48 h
T2 construct: host or cells: Saccharomyces cerevisiae
Experimental: The yeast estrogen receptor assay (YES-assay) was provided by Dr. J.P. Sumpter (Brunel University, Uxbridge, UK; Routledge & Sumpter, 1996) and was used to determine the relative transactivation activity of the human ERα in response to test substances as previously described. Briefly, Saccharomyces cerevisiae stably transfected with a human ERα construct and an estrogen responsive element fused to the reporter gene lacZ encoding for β-galactosidase were treated with the test substances for 48 h. The β-galactosidase enzymatic activity was measured in a colorimetric assay using the substrate chlorophenol red β-D-galactopyranoside (Roche Diagnostics, Mannheim Germany). Formation of chlorophenol red was measured at 540 nm. For the test, all compounds were diluted in DMSO. 17β-estradiol (10 nM; Sigma, Deisenhofen, Germany) served as positive control and DMSO was used as vehicle control. All compounds, were dose dependently tested in a concentration range of 0.01–100 µM, using technical quadruplicates and biological triplicates.

[5] = system: LC3; assay: Autophagy assay, LC3 immunoblot in human fibroblasts (Fed/Hbss, with bafilomycin A1); assay type: cell-based; conditions: Hbss starvation, with BafA1
Experimental: 5 × 10^4 wild-type human fibroblasts were seeded in a 12-well plate and treated overnight with DMSO or different TRPML1 inhibitors (EDME, PRU-10, PRU-12). The day after, cells were treated for 3 h in full media (Fed) or HBSS supplemented with 10 mM HEPES (nutrient starved) in presence of DMSO or different TRPML1 inhibitors (EDME, PRU-10, PRU-12). For autophagic flux experiments, cells were co-treated with 100 nM of bafilomycin A1 (Sigma).
Total cell lysates were prepared using TRIS HCl 10 mM pH 8.0 and 0.2% SDS supplemented with protein and phosphatase inhibitors (Sigma). Protein concentration was determined using the Bradford method. After SDS–polyacrylamide gel electrophoresis (PAGE) and immunoblotting, the protein recognized by the specific antibody was visualized by chemiluminescence methods (Luminata Crescendo Western HRP substrate, Millipore) using HRP-conjugated anti-rabbit or anti-mouse secondary antibodies (Cell Signalling). Images were acquired using Li-Cor Odyssey Fc Imaging System and densitometric quantification of unsaturated images was performed using ImageJ software (NIH). Uncropped and unprocessed western blot scans are provided as Fig. S1. The following primary antibodies were used: LC3 (Novus Cat. No. NB100-2220, 1:1000 in 5% milk), TFEB (Cell Signaling Cat. No. 4240, 1:1000 in 5% BSA) and β-actin (Santa Cruz Cat. No. Sc-47778, 1: 1000 in 5% BSA).

[6] = read-out: TRPML1 IC50, Fluo-4, 5 µM ML-SA1, Fig. 2a/4, Table S1
[7] = TRPML2 IC50, Fluo-4, 5 µM ML-SA1, Table S1

T2 sequence (P03372 whole entry): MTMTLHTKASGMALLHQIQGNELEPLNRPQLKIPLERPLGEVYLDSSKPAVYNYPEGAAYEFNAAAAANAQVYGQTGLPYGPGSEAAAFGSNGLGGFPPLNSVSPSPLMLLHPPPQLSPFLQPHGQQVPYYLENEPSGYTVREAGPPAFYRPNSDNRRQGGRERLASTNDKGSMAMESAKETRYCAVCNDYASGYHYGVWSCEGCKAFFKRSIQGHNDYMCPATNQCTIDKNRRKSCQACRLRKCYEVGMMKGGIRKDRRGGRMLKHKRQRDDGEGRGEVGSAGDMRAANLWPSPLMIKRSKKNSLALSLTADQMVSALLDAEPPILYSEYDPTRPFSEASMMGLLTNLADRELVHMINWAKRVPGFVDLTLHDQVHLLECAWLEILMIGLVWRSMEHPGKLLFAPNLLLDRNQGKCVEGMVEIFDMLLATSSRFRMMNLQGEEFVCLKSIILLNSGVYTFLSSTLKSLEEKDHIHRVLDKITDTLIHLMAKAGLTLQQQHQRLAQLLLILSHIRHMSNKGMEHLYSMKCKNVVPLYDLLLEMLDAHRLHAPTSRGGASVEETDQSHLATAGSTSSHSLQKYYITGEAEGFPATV
Sequence of hTRPML1∆NC-YFP (Homo sapiens, UniProt Q9GZU1) (Q9GZU1 whole entry): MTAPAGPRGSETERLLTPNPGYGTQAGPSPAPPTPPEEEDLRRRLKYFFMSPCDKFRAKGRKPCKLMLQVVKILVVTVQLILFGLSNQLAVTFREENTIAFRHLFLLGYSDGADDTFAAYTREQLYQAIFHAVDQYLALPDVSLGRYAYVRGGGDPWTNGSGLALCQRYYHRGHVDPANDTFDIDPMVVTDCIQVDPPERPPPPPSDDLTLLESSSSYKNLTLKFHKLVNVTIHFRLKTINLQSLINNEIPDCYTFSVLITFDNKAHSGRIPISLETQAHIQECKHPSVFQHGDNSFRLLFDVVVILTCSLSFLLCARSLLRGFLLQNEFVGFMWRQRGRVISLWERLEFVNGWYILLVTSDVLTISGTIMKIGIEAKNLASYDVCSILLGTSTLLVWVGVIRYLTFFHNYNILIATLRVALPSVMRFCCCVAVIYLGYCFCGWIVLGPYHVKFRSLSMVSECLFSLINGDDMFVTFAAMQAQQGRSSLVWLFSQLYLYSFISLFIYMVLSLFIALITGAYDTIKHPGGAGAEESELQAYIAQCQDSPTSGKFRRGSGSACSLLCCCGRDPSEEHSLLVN

Row | Structure (SMILES) | IC50 [1, 6] [µM] | TRPML isoform selectivity profile [2] | TRPML1:TRPML2 fold selectivity [2] [fold] | TRPML1:TRPML3 fold selectivity [2] [fold] | IC50 [3, 7] [µM] | effect/efficacy at ERα [4] | concentration showing efficacy on autophagy (LC3) [5] [µM] | inhibitory effect on TRPML1 ([1]; 12.5 µM compound, 5 µM ML-SA1, Fig. 1f) | IC50 ([1]; read-out: TRPML1 IC50, concentration-response retest of screening hits and steroids, Fluo-4, 5 µM ML-SA1, Fig. 1b-e, S1) [µM] | primary screen result ([2]; 20 µM compound, 5 µM ML-SA1, TRPML1 and TRPML3) | TRPML1 versus TRPML3 selectivity ([2]; Fluo-4, TRPML1 vs TRPML3, 5 µM ML-SA1) | IC50 ([3]; Fluo-4, 5 µM ML-SA1, Table S1, read-out: TRPML2 IC50)
1 | CC(=O)c1ccc2c(c1)CC[C@@H]1[C@@H]2CC[C@]2(C)[C@@H](O)CC[C@@H]12 [PRU-12] | 0.28 | further improved selectivity profile compared to EDME; also recorded: good TRPML isoform selectivity profile | 18.86 | 50.29 | 5.28 | relatively low efficacy; also recorded: weakest effects | 1 | – | – | – | – | –
2 | COc1ccc2c(c1)CC[C@@H]1[C@@H]2CC[C@]2(C)[C@@H](O)CC[C@@H]12 [EDME, 17β-estradiol methyl ether] | – | – | 9.14 | 30.47 | – | comparably strong effects | 1 | completely blocks TRPML1 | 0.5 | TRPML1 selective hit | highly TRPML1-selective | 5.85 µM and 5.9 µM
3 | C=Cc1ccc2c(c1)CC[C@@H]1[C@@H]2CC[C@]2(C)[C@@H](O)CC[C@@H]12 [PRU-10] | 0.41 | further improved selectivity profile compared to EDME; also recorded: good TRPML isoform selectivity profile | 13.17 | 38.61 | 5.4 | relatively low efficacy; also recorded: weakest effects | 3 | – | – | – | – | –
